Counter-ions that a name gives are not always drawn.
Assays:
Type in all cases: physicochemical
[1] = Interconversion studies of Form 1 and Form 2 stirred in solvents; settings: isopropanol (50° C., 7 days), acetone (50° C., 3 days), acetone/water 9/1 v/v (50° C., 1 day; room temperature, 1 day)
Experimental: In interconversion studies, equal amounts of Form 1 and Form 2 were added in various solvents and stirred at various temperatures for several days.

[2] = Dynamic vapor sorption (DVS) / hygroscopicity
[3] = Solid-state chemical and physical stability on storage

[2H]C([2H])([2H])CC(=O)c1cnc(NC(=O)C2CC2)cc1Nc1cccc(-c2ncn(C([2H])([2H])[2H])n2)c1OC [Form 1, N-(4-((2-methoxy-3-(1-(methyl-d3)-1H-1,2,4-triazol-3-yl)phenyl)amino)-5-(propanoyl-3,3,3-d3)pyridin-2-yl) cyclopropanecarboxamide hydrochloride]
Relative stability of crystalline forms (form obtained from equal amounts of Form 1 and Form 2) [1]: more stable crystalline form
Hygroscopicity [2]: slightly hygroscopic
Form change after DVS analysis ([2]; after DVS analysis): No form change
DVS reversable total mass change ([2]; between about 0% to about 80% relative humidity (RH) at 25° C.): about 0.2 wt. %
DVS reversable total mass change ([2]; between about 0% to about 90% relative humidity (RH) at 25° C.): about 0.3 wt. %
Time chemically and physically stable in the solid form ([3]; 40° C./75% RH): at least 10 days
Time chemically and physically stable in the solid form ([3]; 60° C.): at least 10 days
Time chemically and physically stable ([3]; ambient temperature and humidity): at least 12 months

— patent US20260209205A1, “CRYSTALLINE FORMS OF A TYK2 INHIBITOR AND USES THEREOF” (Alumis Inc., priority 2022, published 2026)
